ChEMBL document CHEMBL1132968, “Substituent effects on the antibacterial activity of nitrogen-carbon-linked (azolylphenyl)oxazolidinones with expanded activity against the fastidious gram-negative organisms Haemophilus influenzae and Moraxella catarrhalis” (2000)
Converted amounts (≈) assume the structure as drawn.

Tests used:
Type in all cases: functional
Moraxella catarrhalis = test: Inhibitory activity against Moraxella catarrhalis UC30610
Mus musculus [1] = test: Dose administered required to cure 50% of Staphylococcus aureus infected mice when administered orally; value ranges from 2.0-4.9; conditions: po
Staphylococcus aureus [2] = test: Inhibitory activity against Methicillin-resistant Staphylococcus aureus UC6685
Mus musculus [3] = test: Dose required to cure 50% of Staphylococcus aureus infected mice in the presence of eperezolid when administered orally;value ranges from 1.9-6.6; conditions: po
Staphylococcus aureus [4] = test: Inhibitory activity against Methicillin-susceptible Staphylococcus aureus UC9213
Enterococcus faecalis = test: Inhibitory activity against Enterococcus faecalis UC9217
Haemophilus influenzae = test: Inhibitory activity against Haemophilus influenzae UC30063
[5] = system: Staphylococcus epidermidis; test: Inhibitory activity against Methicillin-resistant Staphylococcus epidermidis UC12084
Streptococcus pneumoniae = test: Inhibitory activity against Streptococcus pneumoniae UC9912
Mus musculus [6] = test: Dose required to cure 50% of Staphylococcus aureus infected mice in the presence of eperezolid when administered orally; value ranges from 4.0-26.7; conditions: po
Mus musculus [7] = test: Dose required to cure 50% of Staphylococcus aureus infected mice when administered orally;; conditions: po
Mus musculus [8] = test: Dose(orally administered) required to cure 50% of Staphylococcus aureus infected mice; conditions: po
Mus musculus [9] = test: Dose required to cure 50% of Staphylococcus aureus infected mice when administered orally; value ranges from 2.9-8.5; conditions: po
Mus musculus [10] = test: Dose required to cure 50% of Staphylococcus aureus infected mice in the presence of vancomycin when administered orally; value ranges from 2.5-6.4; conditions: po
Mus musculus [11] = test: Dose required to cure 50% of Staphylococcus aureus infected mice when orally administered; value ranges from 3.5-9.1; conditions: po
Mus musculus [12] = test: Dose required to cure 50% of Staphylococcus aureus infected mice in the presence of eperezolid when orally administered; value ranges from 2.2-2.9; conditions: po
Mus musculus [13] = test: Dose(orally administered) required to cure 50% of Staphylococcus aureus infected mice in the presence of eperezolid when administered orally; value ranges from 0.8-2.3; conditions: po
Mus musculus [14] = test: Dose required to cure 50% of Staphylococcus aureus infected mice when administered orally.; conditions: po
Mus musculus [15] = test: Dose required to cure 50% of Staphylococcus aureus infected mice when orally administered; conditions: po
Mus musculus [16] = test: Dose required to cure 50% of Staphylococcus aureus infected mice in the presence of vancomycin when orally administered; value ranges from 0.5-1.5; conditions: po
Mus musculus [17] = test: Dose(orally administered) required to cure 50% of Staphylococcus aureus infected mice in the presence of vancomycin; conditions: po
Mus musculus [18] = test: Dose required to cure 50% of Staphylococcus aureus infected mice in the presence of eperezolid when administered orally;vlaue ranges from 1.9-6.6; conditions: po
Mus musculus [19] = test: Dose required to cure 50% of Staphylococcus aureus infected mice when administered orally administered; conditions: po
Mus musculus [20] = test: Dose required to cure 50% of Staphylococcus aureus infected mice when administered orally; value ranges from 3.1-13.1; conditions: po
Mus musculus [21] = test: Dose required to cure 50% of Staphylococcus aureus infected mice in the presence of vancomycin when administered orally; value arnges from 1.0-3.2; conditions: po
Mus musculus [22] = test: Dose required to cure 50% of Staphylococcus aureus infected mice when orally administered; value ranges from 4.3-13.3; conditions: po
Mus musculus [23] = test: Dose(orally administered) required to cure 50% of Staphylococcus aureus infected mice in the presence of eperezolid when orally administered; value ranges from 2.2-6.1; conditions: po

SMILES	MIC (Moraxella catarrhalis) [µg/mL]	MIC (Staphylococcus aureus [2]) [µg/mL]	MIC (Staphylococcus aureus [4]) [µg/mL]	MIC (Enterococcus faecalis) [µg/mL]	MIC (Haemophilus influenzae) [µg/mL]	MIC [5] [µg/mL]	MIC (Streptococcus pneumoniae) [µg/mL]	other results
CC(=O)NC[C@H]1CN(c2ccc(-n3ncc(C#N)n3)c(F)c2)C(=O)O1	2 (≈ 5.81 µM)	0.5 (≈ 1.45 µM)	0.5 (≈ 1.45 µM)	0.5 (≈ 1.45 µM)	8 (≈ 23.2 µM)	≤ 0.125	≤ 0.125	ED50 (Mus musculus [1]): 3.2 mg/kg/day; ED50 (Mus musculus [3]): 3.8 mg/kg/day
CC(=O)NC[C@H]1CN(c2ccc(-n3cnnn3)c(F)c2)C(=O)O1	16 (≈ 50 µM)	2 (≈ 6.24 µM)	4 (≈ 12.5 µM)	2 (≈ 6.24 µM)	16 (≈ 50 µM)	2 (≈ 6.24 µM)	1 (≈ 3.12 µM)	ED50 (Mus musculus [6]): 7.8 mg/kg/day; ED50 (Mus musculus [7]): > 20 mg/kg/day
CN[C@H](CC(C)C)C(=O)N[C@H]1C(=O)N[C@@H](CC(N)=O)C(=O)N[C@H]2C(=O)N[C@H]3C(=O)N[C@H](C(=O)N[C@H](C(=O)O)c4cc(O)cc(O)c4-c4cc3ccc4O)[C@H](O)c3ccc(c(Cl)c3)Oc3cc2cc(c3O[C@@H]2O[C@H](CO)[C@@H](O)[C@H](O)[C@H]2O[C@H]2C[C@](C)(N)[C@H](O)[C@H](C)O2)Oc2ccc(cc2Cl)[C@H]1O [VANCOMYCIN]	–	–	–	–	–	–	–	ED50 (Mus musculus [8]): 3.9 mg/kg/day
CC(=O)NC[C@H]1CN(c2ccc(N3CCOCC3)c(F)c2)C(=O)O1 [LINEZOLID]	–	–	–	–	–	–	–	ED50 (Mus musculus [9]): 5.6 mg/kg/day; ED50 (Mus musculus [10]): 3.9 mg/kg/day
CC(=O)NC[C@H]1CN(c2ccc(-n3ccc(/C=N\O)c3)c(F)c2)C(=O)O1	–	–	–	–	–	–	≤ 0.125	ED50 (Mus musculus [11]): 5.5 mg/kg/day; ED50 (Mus musculus [12]): 2.6 mg/kg/day
CC(=O)NC[C@H]1CN(c2ccc(-n3ccc(CCCNS(C)(=O)=O)c3)c(F)c2)C(=O)O1	8 (≈ 17.7 µM)	4 (≈ 8.84 µM)	8 (≈ 17.7 µM)	2 (≈ 4.42 µM)	> 16	2 (≈ 4.42 µM)	0.5 (≈ 1.1 µM)	ED50 (Mus musculus [13]): 1.8 mg/kg/day; ED50 (Mus musculus [14]): > 20 mg/kg/day
CC(=O)NC[C@H]1CN(c2ccc(-n3ccc(CO)c3)c(F)c2)C(=O)O1	2 (≈ 5.76 µM)	1 (≈ 2.88 µM)	1 (≈ 2.88 µM)	1 (≈ 2.88 µM)	4 (≈ 11.5 µM)	0.25 (≈ 0.72 µM)	0.25 (≈ 0.72 µM)	ED50 (Mus musculus [15]): > 20 mg/kg/day; ED50 (Mus musculus [16]): 0.9 mg/kg/day
CC(=O)NC[C@H]1CN(c2ccc(-n3ccc(C=O)c3)c(F)c2)C(=O)O1	–	–	–	–	–	0.125 (≈ 0.362 µM)	< 0.06	ED50 (Mus musculus [17]): 1.7 mg/kg/day; ED50 (Mus musculus [8]): > 20 mg/kg/day
CO/N=C/c1cn(-c2ccc(N3C[C@H](CNC(C)=O)OC3=O)cc2F)nn1	16 (≈ 42.5 µM)	2 (≈ 5.31 µM)	4 (≈ 10.6 µM)	4 (≈ 10.6 µM)	> 16	1 (≈ 2.66 µM)	0.5 (≈ 1.33 µM)	ED50 (Mus musculus [18]): 3.8 mg/kg/day; ED50 (Mus musculus [19]): 8.6 mg/kg/day
CC(=O)NC[C@H]1CN(c2ccc(-n3ccc(=O)[nH]3)c(F)c2)C(=O)O1	8 (≈ 23.9 µM)	8 (≈ 23.9 µM)	8 (≈ 23.9 µM)	8 (≈ 23.9 µM)	16 (≈ 47.9 µM)	1 (≈ 2.99 µM)	1 (≈ 2.99 µM)	–
CC(=O)NC[C@H]1CN(c2ccc(-n3nccn3)c(F)c2)C(=O)O1	> 16	2 (≈ 6.26 µM)	4 (≈ 12.5 µM)	4 (≈ 12.5 µM)	> 16	1 (≈ 3.13 µM)	1 (≈ 3.13 µM)	–
CC(=O)NC[C@H]1CN(c2ccc(-n3ccc(OC(C)=O)n3)c(F)c2)C(=O)O1	8 (≈ 21.3 µM)	8 (≈ 21.3 µM)	8 (≈ 21.3 µM)	8 (≈ 21.3 µM)	16 (≈ 42.5 µM)	1 (≈ 2.66 µM)	1 (≈ 2.66 µM)	–
CC(=O)NC[C@H]1CN(c2ccc(-n3cnc(N)n3)c(F)c2)C(=O)O1	16 (≈ 47.9 µM)	4 (≈ 12 µM)	8 (≈ 23.9 µM)	16 (≈ 47.9 µM)	> 16	2 (≈ 5.98 µM)	1 (≈ 2.99 µM)	–
CC(=O)NC[C@H]1CN(c2ccc(-n3cc(NC(=O)OC(C)(C)C)cn3)c(F)c2)C(=O)O1	> 16	4 (≈ 9.23 µM)	8 (≈ 18.5 µM)	8 (≈ 18.5 µM)	> 16	2 (≈ 4.61 µM)	1 (≈ 2.31 µM)	–
CC(=O)NC[C@H]1CN(c2ccc(-n3cncn3)c(F)c2)C(=O)O1	16 (≈ 50.1 µM)	4 (≈ 12.5 µM)	4 (≈ 12.5 µM)	4 (≈ 12.5 µM)	32 (≈ 100 µM)	1 (≈ 3.13 µM)	1 (≈ 3.13 µM)	ED50 (Mus musculus [20]): 5.7 mg/kg/day; ED50 (Mus musculus [21]): 2.4 mg/kg/day
CC(=O)NC[C@H]1CN(c2ccc(-n3cc(CO)nn3)c(F)c2)C(=O)O1	2 (≈ 5.73 µM)	4 (≈ 11.5 µM)	4 (≈ 11.5 µM)	2 (≈ 5.73 µM)	4 (≈ 11.5 µM)	0.5 (≈ 1.43 µM)	0.25 (≈ 0.716 µM)	–
CC(=O)NC[C@H]1CN(c2ccc(-n3cnc(C=O)n3)c(F)c2)C(=O)O1	8 (≈ 23 µM)	2 (≈ 5.76 µM)	4 (≈ 11.5 µM)	4 (≈ 11.5 µM)	8 (≈ 23 µM)	0.5 (≈ 1.44 µM)	0.5 (≈ 1.44 µM)	–
CC(=O)NC[C@H]1CN(c2ccc(-n3cc(NC(C)=O)cn3)c(F)c2)C(=O)O1	> 16	16 (≈ 42.6 µM)	> 16	16 (≈ 42.6 µM)	> 16	2 (≈ 5.33 µM)	1 (≈ 2.66 µM)	–
CC(=O)NC[C@H]1CN(c2ccc(-n3cnc(Cl)n3)c(F)c2)C(=O)O1	2 (≈ 5.65 µM)	2 (≈ 5.65 µM)	4 (≈ 11.3 µM)	2 (≈ 5.65 µM)	16 (≈ 45.2 µM)	0.5 (≈ 1.41 µM)	< 0.125	ED50 (Mus musculus [17]): 5 mg/kg/day; ED50 (Mus musculus [8]): 9.4 mg/kg/day
CC(=O)NC[C@H]1CN(c2ccc(-n3ccc(C)n3)c(F)c2)C(=O)O1	16 (≈ 48.1 µM)	4 (≈ 12 µM)	4 (≈ 12 µM)	4 (≈ 12 µM)	> 16	1 (≈ 3.01 µM)	1 (≈ 3.01 µM)	–
CO/N=C\c1ccn(-c2ccc(N3C[C@H](CNC(C)=O)OC3=O)cc2F)c1	16 (≈ 42.7 µM)	1 (≈ 2.67 µM)	1 (≈ 2.67 µM)	1 (≈ 2.67 µM)	16 (≈ 42.7 µM)	0.5 (≈ 1.34 µM)	0.25 (≈ 0.668 µM)	ED50 (Mus musculus [22]): 7.3 mg/kg/day; ED50 (Mus musculus [23]): 3.5 mg/kg/day
CC(=O)NC[C@H]1CN(c2ccc(-n3cc(/C(C)=N\O)nn3)c(F)c2)C(=O)O1	4 (≈ 10.6 µM)	4 (≈ 10.6 µM)	4 (≈ 10.6 µM)	8 (≈ 21.3 µM)	16 (≈ 42.5 µM)	2 (≈ 5.31 µM)	0.5 (≈ 1.33 µM)	–
CC(=O)NC[C@H]1CN(c2ccc(-n3cc(C(N)=O)nn3)c(F)c2)C(=O)O1	8 (≈ 22.1 µM)	4 (≈ 11 µM)	4 (≈ 11 µM)	8 (≈ 22.1 µM)	> 16	1 (≈ 2.76 µM)	0.5 (≈ 1.38 µM)	–
